Data reported in US11312706B2, “Cyclohexyl acid pyrazole azines as LPA antagonists” (BRISTOL-MYERS SQUIBB COMPANY, priority 2017, dated 2022).
Each block holds one compound with its values, some of them ahead of it.

Experiments:
[1] = test system: IPF patients; conditions: 26 weeks; cited from earlier work
[2] = target: T1, human LPA1 (Homo sapiens, UniProt Q92633); assay: LPA1 functional antagonist assay (LPA-induced calcium flux); format: cell-based; conditions: CHO cells overexpressing human LPA1, 10 nM LPA, read-out: hLPA1 IC50
T1 construct: expressed in transfected cells; host or cells: Chinese hamster ovary (CHO) cells
T1 sequence (Q92633 whole entry): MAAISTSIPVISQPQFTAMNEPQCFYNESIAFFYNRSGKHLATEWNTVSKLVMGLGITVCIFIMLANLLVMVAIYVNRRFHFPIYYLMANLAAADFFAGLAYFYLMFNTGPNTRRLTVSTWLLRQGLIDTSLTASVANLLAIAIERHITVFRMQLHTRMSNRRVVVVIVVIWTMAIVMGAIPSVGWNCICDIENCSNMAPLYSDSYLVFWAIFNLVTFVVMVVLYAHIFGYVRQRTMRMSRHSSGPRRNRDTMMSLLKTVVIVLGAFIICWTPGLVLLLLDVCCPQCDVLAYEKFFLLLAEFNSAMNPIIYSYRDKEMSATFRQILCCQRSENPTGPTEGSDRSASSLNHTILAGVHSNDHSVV
Protocol: The effectiveness of compounds of the present invention as LPA1 inhibitors can be determined in an LPA1 functional antagonist assay as follows:
Chinese hamster ovary cells overexpressing human LPA1 were plated overnight (15,000 cells/well) in poly-D-lysine coated 384-well microplates (Greiner bio-one, Cat #781946) in DMEM/F12 medium (Gibco, Cat #11039). Following overnight culture, cells were loaded with calcium indicator dye (AAT Bioquest Inc, Cat #34601) for 30 minutes at 37° C. The cells were then equilibrated to room temperature for 30 minutes before the assay. Test compounds solubilized in DMSO were transferred to 384 well non-binding surface plates (Corning, Cat #3575) using the Labcyte Echo acoustic dispense and diluted with assay buffer [1×HBSS with calcium/magnesium (Gibco Cat #14025-092), 20 mM HEPES (Gibco Cat #15630-080) and 0.1% fatty acid free BSA (Sigma Cat #A9205)] to a final concentration of 0.5% DMSO. Diluted compounds were added to the cells by FDSS6000 (Hamamatsu) at final concentrations ranging from 0.08 nM to 5 μM. and were then incubated for 20 min at room temperature at which time LPA (Avanti Polar Lipids Cat #857130C) was added at final concentrations of 10 nM to stimulate the cells. The compound IC50 value was defined as the concentration of test compound which inhibited 50% of the calcium flux induced by LPA alone. IC50 values were determined by fitting data to a 4-parameter logistic equation (GraphPad Prism, San Diego Calif.).

[3] = test system: nerve-injured mice; conditions: pretreatment; cited from earlier work
[4] = test system: UUO mice; conditions: cited from earlier work
[5] = test system: mouse epithelial renal cell line, MCT; conditions: MCT cells, co-treatment with LPA; cited from earlier work
[6] = test system: pancreatic cancer cell lines; conditions: ascites from pancreatic cancer patients; cited from earlier work
[7] = test system: highly peritoneal metastatic pancreatic cancer cell line; conditions: cited from earlier work
[8] = test system: human foetal lung fibroblasts; conditions: bronchoalveolar lavage samples of IPF subjects; cited from earlier work

Compound: Cc1noc(-c2ccc(-c3ccc(C4(C(=O)O)CC4)cc3)cc2)c1NC(=O)O[C@H](C)c1ccccc1 [BMS-986020]
rate of FVC (forced vital capacity) decline [1]: significantly reduce the rate of FVC (forced vital capacity) decline

Compound: Cc1nc(-c2cnn(C)c2CNc2nccc(OCC(F)F)n2)ncc1O[C@H]1CCC[C@H](C(=O)O)C1 [Example 40, (1S,3S)-3-((2-(5-(((4-(2,2-difluoroethoxy)pyrimidin-2-yl)amino)methyl)-1-methyl-1H-pyrazol-4-yl)-4-methylpyrimidin-5-yl)oxy)cyclohexane-1-carboxylic acid]
IC50 [2]: 2.7 nM

Compound: Cc1nc(-c2cnn(C)c2CNc2nccc(OCCCF)n2)ncc1O[C@H]1CCC[C@H](C(=O)O)C1 [Example 41, (1S,3S)-3-((2-(5-(((4-(3-fluoropropoxy)pyrimidin-2-yl)amino)methyl)-1-methyl-1H-pyrazol-4-yl)-4-methylpyrimidin-5-yl)oxy)cyclohexane-1-carboxylic acid]
IC50 [2]: 7.1 nM

Compound: Cc1nc(-c2cnn(C)c2CNc2ncnc(C(C)C)n2)ncc1O[C@H]1CCC[C@H](C(=O)O)C1 [Example 43, (1S,3S)-3-((2-(5-(((4-isopropyl-1,3,5-triazin-2-yl)amino)methyl)-1-methyl-1H-pyrazol-4-yl)-4-methylpyrimidin-5-yl)oxy)cyclohexane-1-carboxylic acid]
IC50 [2]: 28 nM

Compound: C[C@@H](N)[C@H]1CC[C@H](C(=O)Nc2ccncc2)CC1 [Example Y-27632]
allodynia and hyperalgesia [3]: completely abolished

Compound: Cc1noc(-c2ccc(CSCCC(=O)O)cc2)c1NC(=O)OC(C)c1ccccc1Cl (stereo not shown) [Ki16425]
development of renal fibrosis, profile [4]: closely resembled the profile of LPA1 (−/−) mice
induction of CTGF expression by LPA [5]: almost completely suppressed
in vitro migration in response to LPA and peritoneal fluid (ascites) [6]: effectively blocked
LPA-induced and ascites-induced invasion activity [7]: blocked
fibroblast chemotactic activity [8]: inhibited

More lines, now with the values ahead:

IC50 [2]: 6.2 nM
Compound: Cc1nc(-c2cnn(C)c2CNc2nccc(OCC(F)(F)C(F)F)n2)ncc1O[C@H]1CCC[C@H](C(=O)O)C1 [Example 39, (1S,3S)-3((4-methyl-2-(1-methyl-5-(((4-(2,2,3,3-tetrafluoropropoxy)pyrimidin-2-yl)amino)methyl)-1H-pyrazol-4-yl)pyrimidin-5-yl)oxy)cyclohexane-1-carboxylic acid]

IC50 [2]: 137 nM
Compound: Cn1ncc(-c2ccc(O[C@H]3CCC[C@H](C(=O)O)C3)cn2)c1Nc1cccc(-c2cccc(F)c2)n1 [Example 42, (1S,3S)-3-{[6-(5-{[6-(3-fluorophenyl)pyridin-2-yl]amino}-1-methyl-1H-pyrazol-4-yl)pyridin-3-yl]oxy}cyclohexane-1-carboxylic acid]

IC50 [2]: 22 nM
Compound: (1S,3S)-3-((2-(5-(((4-(2-fluoro-phenyl)pyrimidin-2-yl)amino) methyl)-1-methyl-1H-1,2,3-triazol-4-yl)-4-methylpyrimidin-5-yl)oxy)cyclohexanecarboxylic acid [Example 14]
